Test results from DBAASP.
Values after ≈ are worked out from the molar mass of the structure shown.

Experiments:
Experiment in all cases: ≥ marks a high value that may be exact or a test limit, other limits are often not marked, values filed in µg/mL are converted to µM
[1] = tested on: Escherichia coli ATCC 25922
Escherichia coli 780 = tested on: Escherichia coli 780
Escherichia coli 850 = tested on: Escherichia coli 850
Acinetobacter baumannii = tested on: Acinetobacter baumannii
[2] = tested on: Pseudomonas aeruginosa 2760
[3] = tested on: Enterococcus faecalis ATCC 29212
[4] = tested on: Bacillus subtilis ATCC 23857
[5] = tested on: Pseudomonas aeruginosa ATCC 27853
[6] = tested on: Klebsiella pneumoniae ATCC 700603
[7] = tested on: Staphylococcus aureus 936
[8] = tested on: Acinetobacter baumannii ATCC 19606
[9] = tested on: Staphylococcus aureus ATCC 25923
[10] = tested on: Staphylococcus aureus 725
[11] = tested on: Staphylococcus aureus ATCC 9144
[12] = tested on: Acinetobacter baumannii ATCC 17978
[13] = tested on: Escherichia coli NCTC 12923
[14] = tested on: Pseudomonas aeruginosa PAO1
[15] = tested on: Candida albicans ATCC 90028
[16] = tested on: Escherichia coli ATCC 700928
[17] = tested on: Staphylococcus aureus USA 300
[18] = tested on: Klebsiella pneumoniae NCTC 13368
[19] = tested on: Bacillus subtilis ATCC 13933
[20] = tested on: Escherichia coli K12 MG1655
[21] = tested on: Staphylococcus aureus 68 HER 1049
[22] = tested on: Staphylococcus aureus K35
[23] = tested on: Staphylococcus aureus K52
Enterococcus faecium = tested on: Enterococcus faecium
[24] = tested on: Micrococcus luteus NBRC 12708
[25] = tested on: Escherichia coli NBRC 14237
[26] = tested on: Staphylococcus aureus JCM 2151
[27] = tested on: Escherichia coli DH5alpha
[28] = tested on: Pseudomonas aeruginosa NBRC 12582
[29] = tested on: Staphylococcus aureus NBRC 12732
Bacillus subtilis PS832 = tested on: Bacillus subtilis PS832
Escherichia coli MG1655 = tested on: Escherichia coli MG1655

`CC[C@H](C)[C@H](NC(=O)[C@H](CCCCN)NC(=O)[C@H](CCCCN)NC(=O)[C@@H]1CCCN1C(=O)[C@H](CC(C)C)NC(=O)[C@H](CCCCN)NC(=O)[C@H](C)NC(=O)[C@H](CC(C)C)NC(=O)[C@@H]1CCCN1C(=O)[C@H](CCCCN)NC(=O)[C@H](CC(C)C)NC(=O)[C@H](CC(N)=O)NC(=O)[C@@H](NC(=O)[C@H](CCCCN)NC(=O)[C@@H]1CCCN1C(=O)[C@H](CC(C)C)NC(=O)[C@H](CC(C)C)NC(=O)[C@H](Cc1ccc(O)cc1)NC(=O)CNC(=O)[C@H](C)N)[C@@H](C)CC)C(=O)N[C@@H](CC(C)C)C(N)=O` [AGYLLPKINLKPLAKLPKKIL] was tested, and the MIC [1] was > 54.9 µM, the MIC (Escherichia coli 780) was ≥ 54.9 µM and the MIC (Escherichia coli 850) was ≥ 54.9 µM. The MIC (Acinetobacter baumannii) was ≥ 54.9 µM, the MIC [2] was ≥ 54.9 µM and the MIC [3] was > 54.9 µM. The MIC [4] was ≥ 54.9 µM, the MIC [5] was 54.9 µM (≈ 128 µg/mL) and the MIC [6] was > 54.9 µM. For the same compound, the MIC [7] was ≥ 54.9 µM, the MIC [8] was 54.9 µM (≈ 128 µg/mL) and the MIC [9] was > 54.9 µM. The MIC [10] was ≥ 54.9 µM.

In the case of `CC[C@H](C)[C@H](NC(=O)CNC(=O)[C@@H](N)CCCCN)C(=O)N[C@@H](CCCN=C(N)N)C(=O)NCC(=O)N[C@@H](Cc1ccc(O)cc1)C(=O)N[C@@H](CCCCN)C(=O)NCC(=O)NCC(=O)N[C@@H](Cc1ccc(O)cc1)C(=O)N[C@@H](CS)C(=O)N[C@@H](CCCCN)C(=O)NCC(=O)N[C@@H](C)C(=O)N[C@@H](Cc1ccccc1)C(=O)N[C@@H](CCCCN)C(=O)N[C@@H](CCC(N)=O)C(=O)N[C@H](C(=O)N[C@@H](CS)C(=O)N[C@@H](CCCCN)C(=O)N[C@@H](CS)C(=O)N[C@@H](Cc1ccc(O)cc1)C(=O)O)[C@@H](C)O` [KGIRGYKGGYCKGAFKQTCKCY], the MIC [11] is reported as ≥ 52 µM, the MIC [12] is reported as ≥ 52 µM and the MIC [13] is reported as ≥ 52 µM. For the same compound, the MIC [14] was > 52 µM, the MIC [15] was 1.9 µM (≈ 4.67 µg/mL) and the MIC [16] was ≥ 48.8 µM. For the same compound, the MIC [17] was ≥ 52 µM, the MIC [18] was ≥ 52 µM and the MIC [19] was ≥ 48.8 µM.

Compound `CC[C@H](C)[C@H](NC(=O)[C@H](CCCN=C(N)N)NC(=O)[C@H](CCCN=C(N)N)NC(=O)[C@H](CC(C)C)NC(=O)[C@H](CCCCN)NC(=O)[C@H](CCCCN)NC(=O)[C@H](Cc1c[nH]c2ccccc12)NC(=O)[C@H](CCCCN)NC(=O)[C@H](CCCCN)NC(=O)[C@H](Cc1c[nH]c2ccccc12)NC(=O)[C@@H](N)Cc1ccc(O)cc1)C(=O)N[C@@H](Cc1ccccc1)C(=O)N[C@@H](CCSC)C(=O)N[C@@H](CC(C)C)C(=O)N[C@H](C(=O)O)C(C)C` [YWKKWKKLRRIFMLV] has an MIC [20] of 0.954 µM (≈ 2 µg/mL) and an MIC [21] of 3.82 µM (≈ 8 µg/mL).

For `CC(C)C[C@H](NC(=O)[C@H](CC(C)C)NC(=O)CNC(=O)[C@H](CO)NC(=O)[C@H](CC(C)C)NC(=O)[C@@H](NC(=O)[C@H](CCCN=C(N)N)NC(=O)CNC(=O)[C@H](CC(C)C)NC(=O)[C@H](CC(C)C)NC(=O)[C@@H]1CCCN1C(=O)[C@H](CC(C)C)NC(=O)[C@@H](N)Cc1ccccc1)C(C)C)C(N)=O` [FLPLLGRVLSGLL], the MIC [22] was 2.8 µM (≈ 3.91 µg/mL), the MIC [23] was 2.8 µM (≈ 3.91 µg/mL) and the MIC [3] was 10.5 µM (≈ 14.7 µg/mL). It also gave an MIC (Enterococcus faecium) of 5.6 µM (≈ 7.82 µg/mL) and an MIC [9] of 5.2 µM (≈ 7.26 µg/mL).

In the case of `CC[C@H](C)[C@H](NC(=O)[C@@H](N)Cc1ccccc1)C(=O)NCC(=O)N[C@@H](C)C(=O)N[C@@H](CC(C)C)C(=O)N[C@@H](CC(C)C)C(=O)N[C@@H](CCCN=C(N)N)C(=O)N1CCC[C@H]1C(=O)N[C@@H](C)C(=O)N[C@@H](CC(C)C)C(=O)N[C@@H](CCCCN)C(=O)N[C@@H](CC(C)C)C(=O)N[C@@H](CC(C)C)C(=O)N[C@@H](C)C(N)=O` [FIGALLRPALKLLA], the MIC [24] is reported as 25 µM (≈ 37.4 µg/mL), the MIC [25] is reported as 12.5 µM (≈ 18.7 µg/mL) and the MIC [26] is reported as 6.48 µM (≈ 9.69 µg/mL). The MIC [27] was ≥ 33.4 µM, the MIC [28] was ≥ 50 µM and the MIC [29] was 12.5 µM (≈ 18.7 µg/mL).

In the case of `CC[C@H](C)[C@H](NC(=O)[C@H](CCCN=C(N)N)NC(=O)[C@H](CCCCN)NC(=O)[C@H](CC(C)C)NC(=O)[C@H](CC(C)C)NC(=O)CNC(=O)[C@H](Cc1cnc[nH]1)NC(=O)[C@H](CCCCN)NC(=O)[C@@H](N)CC(C)C)C(=O)N[C@@H](CCCCN)C(=O)N[C@H](C(=O)N[C@@H](CC(C)C)C(=O)N[C@@H](CC(C)C)C(N)=O)[C@@H](C)O` [LKHGLLKRIKTLL], the MIC (Bacillus subtilis PS832) is reported as 8 µM (≈ 12.3 µg/mL) and the MIC (Escherichia coli MG1655) is reported as 8 µM (≈ 12.3 µg/mL).
